Experimental data published in patent publication US7396854B2, “Use of serotonergic compound for a method of treatment of hot flushes in post-menopausal women” (N.V. Organon, priority 2001, dated 2008).
Counter-ions that a name gives are not always drawn.

Test system: Male rats (HSD/Cpb:WU)
Test: telemetric body temperature measurements in freely moving rats (rise in core body temperature after manipulation for injection)
Assay type: in vivo
Conditions: subcutaneous, 22 mg/kg
Text: Male rats (HSD/Cpb:WU, Harlan Sprague Dawley, Zeist, The Netherlands), weighing 350-480 g, were used. The rats were implanted with a Physio Tel TA11CTA-F40 Implant (Data Sciences International) under pentobarbital anesthesia. After surgery the rats were housed individually in a type II clear MACROLON™ cage (23×17××14 cm). The cages were placed on receivers (RLA 1020). After a recovery and adaptation period of at least one week the rats were used for the experiments. On the experimental day, body temperature, heart rate and locomotor activity was monitored for 30 minutes prior to injection of vehicle or test compound. This period provides a baseline core body temperature relative to which the changes of body temperature after the manipulation of the rats for injection are expressed. After 30 minutes the rats were injected subcutaneously with vehicle or test compound and the same parameters were measured for at least 60 minutes. Immediately after injection the core body temperature rises. Compounds inhibiting this rise in temperature reveal an inhibiting effect on acute body heat production. Results obtained with other parameters, such as the effect on heart rate and on locomotor activity are not presented here. 6 animals were used for measurement of each dose of compound
Data were analyzed using Dataquest IV Data Acquisition System Ver 2.2.
Compounds were dissolved in NaCl 0.9% (m/v) in water as vehicle for subcutaneous injection.

CNCCC(Oc1ccc(C(F)(F)F)cc1)c1ccccc1 (stereo not drawn) [Fluoxetine, Fluoxetine HCl, reference compound]
absolute mean increments in body temperature relative to baseline during 30 minutes prior to manipulation (5 minutes after injection): 0.28 °C | absolute mean increments in body temperature relative to baseline during 30 minutes prior to manipulation (10 minutes after injection): 0.59 °C | absolute mean increments in body temperature relative to baseline during 30 minutes prior to manipulation (15 minutes after injection): 0.71 °C | absolute mean increments in body temperature relative to baseline during 30 minutes prior to manipulation (20 minutes after injection): 0.72 °C | absolute mean increments in body temperature relative to baseline during 30 minutes prior to manipulation (25 minutes after injection): 0.66 °C | absolute mean increments in body temperature relative to baseline during 30 minutes prior to manipulation (30 minutes after injection): 0.56 °C | absolute mean increments in body temperature relative to baseline during 30 minutes prior to manipulation (35 minutes after injection): 0.55 °C | absolute mean increments in body temperature relative to baseline during 30 minutes prior to manipulation (40 minutes after injection): 0.45 °C | absolute mean increments in body temperature relative to baseline during 30 minutes prior to manipulation (45 minutes after injection): 0.38 °C | absolute mean increments in body temperature relative to baseline during 30 minutes prior to manipulation (50 minutes after injection): 0.27 °C | absolute mean increments in body temperature relative to baseline during 30 minutes prior to manipulation (55 minutes after injection): 0.29 °C | absolute mean increments in body temperature relative to baseline during 30 minutes prior to manipulation (60 minutes after injection): 0.85 °C
